In data set [1] the test system is RBL-2H3 cells. The experiment in a line: Maximum tolerated concentration (cytotoxicity by lactate dehydrogenase release). In kind it is cell-based, Rat. The text has this: The safety index (SI) of a test compound is the ratio between the maximum tolerated concentration and the IC50 and is used as a measure of the relative safety of the test compound.
The test system of data set [2] is allergic contact dermatitis response in mice. The experiment in a line: Allergic contact dermatitis (TDI) model in mice, mouse ear swelling test. In kind it is in vivo. The procedure: The anti-inflammatory and anti-allergic effects of compounds 1a and 1c were assessed in a mouse model of allergic contact dermatitis, a response driven primarily by T helper type 2 (Th2) cells. […] In this model, an allergic dermatitis response is obtained by sensitizing mice to TDI and subsequently challenging them with antigen by topical administration onto the ears. A quantitative assessment of anti-inflammatory and anti-allergic effects of topically or orally administered test compounds is possible by measuring the resulting ear swelling. The advantages of the allergic contact dermatitis model (Zöllner et al., Bioessays 26:693-6 (2004)) are reproducibility and reliability (>90% of BALB/c mice respond to sensitization), a short induction protocol, quantitative assessment by measuring ear thickness, atopic dermatitis-like skin lesions can be induced, and clinically relevant pharmaceuticals, such as corticosteroids, calcineurin-inhibitors and PDE4-inhibitors, are effective in this model.
Female BALB/c-mice were obtained from Charles River (Sulzfeld, Germany) at age 8 weeks. All animals were housed in groups of eight per cage at 22° C. with a 12 h light/dark-cycle, Water and a standard diet (Altromin, Lage/Lippe, Germany) were available ad libitum. All animals were acclimatized for one week before experimental procedures were commenced.
Experimental procedures for BALB/c mice housing, TDI sensitization and challenge, and measurement of ear thickness were performed as previously described (Baumer et al., J Pharm Pharmacol, 55:1107-1114 (2003)) with the following modifications. For active sensitization, 100 μL of 5% (w/v) TDI was administered to the shaved and stripped abdominal epidermis on day one, and for the next three consecutive days, 50 μL of 5% (My) TDI was applied. The allergic reaction was boosted 21 days later by application of 50 μL of 0.5% (w/v) TDI. For the examination of test compound effects, the left ears were used for the TDI challenge (20 μL of 0.5% in acetone) and ear thickness measured 3 h before and 24 h after challenge.
Group size was n=7 mice unless otherwise stated. Test compounds were freshly prepared before administration.
Administration time: to determine optimal time for administration treatment groups were treated orally by gavage with 100 mg/kg of compound 1a or 1c (suspended in 0.5% tylose, 10 mL/kg) 1, 4 or 16 h before topical TDI challenge. One group was treated with 100 mg/kg miltefosine orally, 16 h before challenge (based on available data for optimal administration time for miltefosine) and vehicle treated mice received tylose (10 mL/kg) orally, 4 h before challenge.
Dose-response: two groups of mice were treated orally with compound 1a at 25 mg/kg or 100 mg/kg suspended in 0.5% tylose, 4 h before topical TDI challenge. Vehicle treated mice received 0.5% tylose orally 4 h before challenge. As a positive control, dexamethasone was administered in saline solution at 1 mg/kg or 3 mg/kg, 2 h and 30 min before challenge and 1 h after challenge. The dose and dosing scheme for dexamethasone was based on previous experience showing a maximal effect in this model.
Compound 1a was administered to two groups of mice topically in 20 μl of a 2% or 6% solution in propyleneglycol. The suspension was heated to 60° C. and mixed using a thermomixer (Eppendorf) until it became clear. The solution was applied, 2 h before topical TDI challenge by administration of 10 μl onto each of the inner and outer surfaces of the left ears. A vehicle group (17=5) was treated with propyleneglycol. As a positive control, diflorasone, diacetate was administered at 0.01% (low dose) and 0.05% (high dose) in 20 μl acetone, 2 h before challenge. A basal control group was left untreated.
Mean and standard error of the mean (SEM) were calculated from individual ear edema values. […]

For data set [3], the system named is RBL-2H3 cells. As to the kind of experiment: Inhibition of mast cell degranulation (β-hexosaminidase release). In kind it is cell-based. Conditions: Rattus norvegicus, IgE-sensitized RBL-2H3 cells, 1 h with compound, antigen (DNP-HSA) 15 min. An excerpt:
Mast cells are key effector cells involved in allergic and inflammatory diseases, and the Rat Basophilic Leukemia clone 2H3 (RBL-2H3) cell line is a commonly used model of allergen dependent immune modulator release (degranulation) in mast cells. On their surface, they express the high affinity receptor for IgE (FcεRI). Upon binding of antigen-specific IgE to the receptor, cells become sensitized to the IgE specific antigen (allergen). When IgE-sensitized cells then encounter multivalent antigen, the antigen clusters IgE-FcεRI complexes and initiates a signal transduction cascade that leads to degranulation, that is, the release of inflammatory mediators, such as cytokines, eicosanoids, histamine and enzymes. The assay can be used as a screening method to identify immune-modulating compounds, in particular compounds useful in the medical management of allergic and inflammatory diseases and asthma, β-hexosaminidase was previously shown to be released with the same kinetics as histamine (Schwartz et al., J Immunology; 123:1445-1450 (1979)), thus offering a simple means to monitor degranulation. […]
MUG substrate solution, 100 μl, were added to supernatant and lysate samples and plates were incubated 30 min at 37° C. […] Fluorescence was measured at 365 nm excitation and 440 nm emission wavelengths. […]

Data set [4] relates to collagen type II-induced arthritis (CIA). Conditions: mouse, in vivo.
Another data set concerns DTH response in mice. In kind it is in vivo. Conditions: for Inhibition of mouse ear swelling: DTH, 24 h after challenge. The procedure: The anti-inflammatory and anti-allergic effects of compounds 1a and 1c were assessed in a mouse model of skin delayed-type hypersensitivity (DTH) reactions and compared to a vehicle control and to the reference drug dexamethasone. DTH reactions are antigen-specific cell-mediated immune responses, driven primarily by T helper type 1 (Th1) cells, similar to the tuberculin immunization response. The immune reaction induced by an ovalbumin challenge to animals previously sensitized with ovalbumin in Complete Freund's Adjuvant, is characterized by swelling (edema) at the site of challenge, e.g. the mouse ear. Dexamethasone, an anti-inflammatory steroid, reduces cell-mediated immune responses and was employed to validate the responsiveness of the assay to pharmacological treatment.
Female BALB/cJW mice were bred at the University of Lodz, Lodz, Poland and housed in groups of 8 in makrolon cages with a 12 h light-dark cycle. Mice were given free access to food (Agropol S.j., Motycz, Poland) and water.
Sensitization: The protein antigen, ovalbumin, was reconstituted in PBS at 4 mg/ml. An ovalbumin-CFA emulsion was prepared by mixing the protein solution with the CFA suspension at a ratio of 1:1, using two Luer-lock syringes. The emulsion was tested by putting a drop of emulsion onto PBS; if the emulsion remained as a tight droplet on the PBS, the emulsion was deemed ready. Mice were sensitized by subcutaneously injecting 25 μL of emulsion into each side of the tail (100 μg ovalbumin per mouse).
Challenge: On the sixth day after sensitization, DTH was elicited by challenging animals subcutaneously (gauge 30 needle, B. Braun Melsungen, Melsungen, Germany) in the left ears with 10 μL of a 1% suspension of heat-aggregated ovalbumin (HOVA) (100 μg ovalbumin per mouse). The right ears were administered subcutaneously with PBS and served to determine the individual differences in ear thicknesses. HOVA was prepared by heating a 5% solution of ovalbumin in saline for 1 h at 80° C. with occasional swirling. After cooling to room temperature and centrifugation (400 g. 10 min at 4° C.), the pellet was washed twice with saline, resuspended at 2% in PBS and aliquots stored at −30° C. Before injection, HOVA was diluted with an equal volume of PBS and sonicated. Ear thickness was measured with a precise spring-loaded caliper (Art. No. 7309, Mitutoyo, Kawasaki, Japan) before challenge, and 24 h after challenge.
Sensitization, challenge and ear thickness measurement were performed under anesthesia (ketamine 80 mg/kg plus xylazine 8 mg/kg, intraperitoneally).
The anti-inflammatory effects of compounds 1a and 1c were compared to a vehicle control (0.5% methyl cellulose solution) and to the reference drug, dexamethasone. Test compounds were given at 25 or 100 mg/kg orally by gavage (Art. No. 432093, Harvard Apparatus GmbH, March-Hugstetten, Germany) 16 h and 3 h before sensitization and then twice daily with the final dose given 3 h prior to ear challenge (a total of 14 administrations). Dexamethasone was given at 0.1 or 1 mg/kg orally by gavage 3 h before sensitization and once daily with the final dose given 3 h prior to antigen challenge (a total of 7 administrations). All administrations were given in a volume of 10 ml/kg.
To account for individual variability, the increase in right ear thickness, before and 24 h after administration of PBS, was subtracted from the HOVA-induced increase in left ear thickness. The increase in ear thickness was calculated by the difference between ear thickness before and 24 h after antigen challenge. Percent inhibition of ear swelling was calculated according to the following formula: % inhibition=100×(IETvehicle−IETcompound)/IETvehicle where IET=(ET24 hrs pc−ETpredose)HOVA-treated ears−(ET24 hrs pc−ETpredose)PBS-treated ears • (IET, increase ear thickness; ET, ear thickness; pc, post challenge)
Mean and standard deviation (SD) were calculated from individual ear edema values. […]

Where “and” joins values, the source holds several entries; their conditions need not be identical. Equal values may be shown once. Read-outs that look alike come from different tables or passages of the source. Marks after values point to notes of the source that are not given here.

Data on 2 compounds can be found in patent publication US11453642B2, “Oxygenated amino- or ammonium-containing sulfonic acid, phosphonic acid and carboxylic acid derivatives and their medical use” (GRI BIO, INC., priority 2011, dated 2022).

Take `CCCCCCCCCCCCCCCCOP(=O)([O-])OCC[N+](C)(C)C` [Miltefosine, reference compound]: in the data set on RBL-2H3 cells [1] (highest concentration not causing cytotoxicity (LDH release), RBL-2H3 cells), the “MTC (maximum tolerated concentration)” value came out at 25 µM. Also, in the data set with RBL-2H3 cells [1] (ratio between MTC and IC50), the “SI (safety index)” value came to 6.0. Moreover, the “inhibitory efficacy relative to that of 1a at its optimal administration time of 4 h” value in data set [2] (100 mg/kg oral, 16 h before challenge vs 1a 4 h) was found to be 64%. Also, in data set [2] (100 mg/kg oral, 16 h before challenge vs 1c 4 h), the “inhibitory efficacy relative to that of compound 1c at its optimal administration time of 4 h” value is recorded as 69%. In addition, the “Inhibition of mouse ear swelling” value in data set [2] (administration time study, 100 mg/kg oral, 16 h before TDI challenge) is 47% and 47.3^§ %. Besides, in the data set on RBL-2H3 cells [3], the IC50 was 4.2 µM.

As to `C[C@@H]1C[C@H]2[C@@H]3CCC4=CC(=O)C=C[C@]4(C)[C@@]3(F)[C@@H](O)C[C@]2(C)[C@@]1(O)C(=O)CO` [Dexamethasone, reference compound], the “spleen and thymus weights” value in data set [4] was “markedly reduced”. Further, the “Inhibition of mouse ear swelling” value is reported as 78.6*** % in data set [2] (dose-response study, 1 mg/kg, 2 h and 30 min before and 1 h after challenge); 78% in data set [2] (dose-response study, 1 mg/kg, 2 h and 30 min before and 1 h after challenge, listed as dexamethasone); 87.1*** % in data set [2] (dose-response study, 3 mg/kg, 2 h and 30 min before and 1 h after challenge); 87% in data set [2] (dose-response study, 3 mg/kg, 2 h and 30 min before and 1 h after challenge, listed as dexamethasone); 14% in the data set with DTH response in mice (0.1 mg/kg orally once daily (7 administrations)); 53% in the data set with DTH response in mice (1.0 mg/kg orally once daily (7 administrations)). Moreover, in the data set on DTH response in mice (mouse, in vivo, po, 1 mg/kg), the “loss in body weight” value amounted to 9%.

Broadly, the IC50 is the concentration at which inhibition is half-maximal.
